Data: PubChem BioAssay (NCI)
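Results reflect a 48-hour exposure of cells in 96-well plates to compound at five concentrations. Here, GI50 denotes the concentration required for 50% inhibition of growth. TGI denotes the concentration required for complete inhibition of growth.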

Experiments:
Experiment in all cases: NCI anticancer screen, dose series, 48 h
[1] = tested on: 786-0 renal
[2] = tested on: A498 renal
[3] = tested on: A549 NSCLC
[4] = tested on: ACHN renal
[5] = tested on: BT-549 breast
[6] = tested on: CAKI-1 renal
[7] = tested on: CCRF-CEM leukemia
[8] = tested on: COLO 205 colon
[9] = tested on: DU-145 prostate
[10] = tested on: EKVX NSCLC
[11] = tested on: HCC-2998 colon
[12] = tested on: HCT-116 colon
[13] = tested on: HCT-15 colon
[14] = tested on: HL-60(TB) leukemia
[15] = tested on: HOP-62 NSCLC
[16] = tested on: HOP-92 NSCLC
[17] = tested on: HS 578T breast
[18] = tested on: HT29 colon
[19] = tested on: IGROV1 ovarian
[20] = tested on: K-562 leukemia
[21] = tested on: KM12 colon
[22] = tested on: LOX IMVI melanoma
[23] = tested on: M14 melanoma
[24] = tested on: MALME-3M melanoma
[25] = tested on: MCF7 breast
[26] = tested on: MDA-MB-231 breast
[27] = tested on: MDA-MB-435
[28] = tested on: MOLT-4 leukemia
[29] = tested on: NCI-H226 lung
[30] = tested on: NCI-H23 lung
[31] = tested on: NCI-H460 lung
[32] = tested on: NCI-H522 lung
[33] = tested on: NCI/ADR-RES ovarian
[34] = tested on: OVCAR-3 ovarian
[35] = tested on: OVCAR-4 ovarian
[36] = tested on: OVCAR-5 ovarian
[37] = tested on: OVCAR-8 ovarian
[38] = tested on: PC-3 prostate
[39] = tested on: RPMI-8226 leukemia
[40] = tested on: RXF 393 renal
[41] = tested on: SF-268 CNS
[42] = tested on: SF-295 CNS
[43] = tested on: SF-539 CNS
[44] = tested on: SK-MEL-2 melanoma
[45] = tested on: SK-MEL-28 melanoma
[46] = tested on: SK-MEL-5 melanoma
[47] = tested on: SK-OV-3 ovarian
[48] = tested on: SN12C renal
[49] = tested on: SNB-19 CNS
[50] = tested on: SNB-75 CNS
[51] = tested on: SR leukemia
[52] = tested on: SW-620 colon
[53] = tested on: T-47D breast
[54] = tested on: TK-10 renal
[55] = tested on: U251 CNS
[56] = tested on: UACC-257 melanoma
[57] = tested on: UACC-62 melanoma
[58] = tested on: UO-31 renal

**Q.** What does the source list for `c1cc[n+](C2c3ccccc3C([n+]3ccccc3)c3ccccc32)cc1` (stereo unspecified)?
**A.** GI50 [1]: 15.9 µM; TGI [1]: > 100 µM; GI50 [2]: 15.8 µM; TGI [2]: 73.7 µM; GI50 [3]: 26.6 µM; TGI [3]: > 100 µM; GI50 [4]: > 100 µM; TGI [4]: > 100 µM; GI50 [5]: 3.64 µM; TGI [5]: 14.6 µM; GI50 [6]: > 100 µM; TGI [6]: > 100 µM; GI50 [7]: 10.7 µM; TGI [7]: > 100 µM; GI50 [8]: 4.24 µM; TGI [8]: 22.2 µM; GI50 [9]: 14.2 µM; TGI [9]: 43.8 µM; GI50 [10]: 3.39 µM; TGI [10]: > 100 µM; GI50 [11]: 10.3 µM; TGI [11]: 31.8 µM; GI50 [12]: 10.7 µM; TGI [12]: > 100 µM; GI50 [13]: > 100 µM; TGI [13]: > 100 µM; GI50 [14]: 22.6 µM; TGI [14]: > 100 µM; GI50 [15]: 5.77 µM; TGI [15]: 71.1 µM; GI50 [16]: 4.45 µM; TGI [16]: 50.9 µM; GI50 [17]: 4.4 µM; TGI [17]: 27 µM; GI50 [18]: 12.6 µM; TGI [18]: > 75.5 µM; GI50 [19]: 1960 nM; TGI [19]: > 82.8 µM; GI50 [20]: 12 µM; TGI [20]: > 100 µM; GI50 [21]: 6.43 µM; TGI [21]: 50.1 µM; GI50 [22]: 15.8 µM; TGI [22]: > 100 µM; GI50 [23]: 41 µM; TGI [23]: > 100 µM; GI50 [24]: 3.9 µM; TGI [24]: 18.6 µM; GI50 [25]: 11.9 µM; TGI [25]: > 100 µM; GI50 [26]: 21.6 µM; TGI [26]: > 100 µM; GI50 [27]: 5.89 µM; TGI [27]: 23 µM; GI50 [28]: 25.8 µM; TGI [28]: > 100 µM; GI50 [29]: 17.9 µM; TGI [29]: > 100 µM; GI50 [30]: 5.11 µM; TGI [30]: > 52.4 µM; GI50 [31]: 21.1 µM; TGI [31]: > 89.4 µM; GI50 [32]: 4.67 µM; TGI [32]: 30.7 µM; GI50 [33]: > 100 µM; TGI [33]: > 100 µM; GI50 [34]: 14.1 µM; TGI [34]: > 77 µM; GI50 [35]: 18.4 µM; TGI [35]: > 100 µM; GI50 [36]: 26.7 µM; TGI [36]: > 100 µM; GI50 [37]: 6.23 µM; TGI [37]: > 100 µM; GI50 [38]: 4.8 µM; TGI [38]: > 100 µM; GI50 [39]: 6.96 µM; TGI [39]: > 86.4 µM; GI50 [40]: 19.5 µM; TGI [40]: 86.2 µM; GI50 [41]: 2130 nM; TGI [41]: 11.8 µM; GI50 [42]: 4.2 µM; TGI [42]: 80.9 µM; GI50 [43]: 2590 nM; TGI [43]: 17.3 µM; GI50 [44]: 15 µM; TGI [44]: > 66.4 µM; GI50 [45]: 5.92 µM; TGI [45]: > 44.5 µM; GI50 [46]: 7.91 µM; TGI [46]: 23.2 µM; GI50 [47]: 52.5 µM; TGI [47]: > 100 µM; GI50 [48]: 3.39 µM; TGI [48]: 25.4 µM; GI50 [49]: 4.13 µM; TGI [49]: 42.8 µM; GI50 [50]: 1130 nM; TGI [50]: 3.15 µM; GI50 [51]: 7.64 µM; TGI [51]: > 100 µM; GI50 [52]: 8.52 µM; TGI [52]: > 100 µM; GI50 [53]: 10.1 µM; TGI [53]: 79.6 µM; GI50 [54]: 19.2 µM; TGI [54]: > 100 µM; GI50 [55]: 3.14 µM; TGI [55]: > 90.8 µM; GI50 [56]: 5.93 µM; TGI [56]: 37 µM; GI50 [57]: 11.3 µM; TGI [57]: 28.7 µM; GI50 [58]: > 100 µM; TGI [58]: > 100 µM
